The source of these data is patent US20240316047A1, “INHIBITORS OF RNA HELICASE DHX9 AND USES THEREOF” (ACCENT THERAPEUTICS, INC., priority 2022, published 2024).

Each structure is given as a SMILES string. pIC50: −log10 of the molar value.

The assay has as its target Human recombinant DHX9 protein (Homo sapiens (Human), UniProt Q08211). Nature of the assay: DHX9 ATPase assay (ADP-Glo). Format: biochemical. Particulars: for pIC50: read-out: DHX9 Biochemical Inflection Point. Background: ADP-Glo first removes unused ATP, then detects ADP through luciferase.

Chain of Human recombinant DHX9 protein (Q08211 whole entry): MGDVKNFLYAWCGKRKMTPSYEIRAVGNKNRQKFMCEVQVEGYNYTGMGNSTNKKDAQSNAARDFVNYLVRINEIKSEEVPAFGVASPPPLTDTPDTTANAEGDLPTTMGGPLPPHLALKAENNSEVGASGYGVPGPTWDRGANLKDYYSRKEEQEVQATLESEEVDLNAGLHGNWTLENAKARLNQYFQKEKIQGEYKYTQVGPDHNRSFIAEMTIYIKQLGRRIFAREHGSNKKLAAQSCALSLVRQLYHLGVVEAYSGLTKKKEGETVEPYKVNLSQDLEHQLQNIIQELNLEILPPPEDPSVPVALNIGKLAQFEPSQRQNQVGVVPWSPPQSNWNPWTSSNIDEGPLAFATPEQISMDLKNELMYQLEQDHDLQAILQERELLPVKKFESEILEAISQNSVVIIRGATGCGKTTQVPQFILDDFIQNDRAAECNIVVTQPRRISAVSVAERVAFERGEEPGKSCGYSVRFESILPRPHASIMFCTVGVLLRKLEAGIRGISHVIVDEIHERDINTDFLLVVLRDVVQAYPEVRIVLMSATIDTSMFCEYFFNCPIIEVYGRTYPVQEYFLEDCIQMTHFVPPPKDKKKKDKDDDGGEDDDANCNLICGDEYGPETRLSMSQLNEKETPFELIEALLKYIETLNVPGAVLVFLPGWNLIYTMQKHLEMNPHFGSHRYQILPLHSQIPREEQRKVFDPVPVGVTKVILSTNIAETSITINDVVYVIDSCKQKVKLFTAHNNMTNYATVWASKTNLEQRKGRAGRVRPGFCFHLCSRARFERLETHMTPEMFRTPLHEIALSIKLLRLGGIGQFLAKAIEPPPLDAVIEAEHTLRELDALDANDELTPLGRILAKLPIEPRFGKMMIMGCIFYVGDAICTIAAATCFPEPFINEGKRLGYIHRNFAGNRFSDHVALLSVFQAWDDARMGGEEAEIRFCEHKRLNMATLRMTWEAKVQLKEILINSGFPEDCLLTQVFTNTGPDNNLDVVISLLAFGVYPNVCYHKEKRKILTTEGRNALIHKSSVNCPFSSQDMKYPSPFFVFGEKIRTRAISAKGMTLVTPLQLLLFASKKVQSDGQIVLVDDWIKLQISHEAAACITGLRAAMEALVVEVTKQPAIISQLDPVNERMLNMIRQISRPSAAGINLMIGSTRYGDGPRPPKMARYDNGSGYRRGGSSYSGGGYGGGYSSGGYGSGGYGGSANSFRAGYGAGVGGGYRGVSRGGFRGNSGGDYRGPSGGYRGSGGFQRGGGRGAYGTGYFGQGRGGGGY

With `CN1C(=O)N(c2csc(C(=O)Nc3cc(Cl)cc(NS(C)(=O)=O)c3)c2)C(=O)C1(C)C` [Example 432], the “DHX9 Biochemical Max Inhibition” value amounted to 75.4 and the pIC50 is 7.92.
Consider `CS(=O)(=O)Nc1cc(Cl)cc(NC(=O)c2cc(-c3ncccc3OCc3ccccc3)cs2)c1` [Example 29], for which the “DHX9 Biochemical Max Inhibition” value was found to be 65.2% and the pIC50 was 7.32.
As to `CCS(=O)(=O)Nc1cc(Cl)cc(NC(=O)c2cc(-c3ncc(N4CC(F)C4)cn3)c(C)s2)c1` [Example 509], the “DHX9 Biochemical Max Inhibition” value turned out to be 90.9 and the pIC50 was 8.40.
Consider `Cc1sc(C(=O)Nc2cc(Cl)cc(NS(C)(=O)=O)c2)cc1-c1ncc(N2CCCC(F)(F)C2)cc1F` [Example 482], for which the “DHX9 Biochemical Max Inhibition” value worked out at 63.3 and the pIC50 is 7.18.
Consider `CS(=O)(=O)Nc1cc(Cl)cc(NC(=O)c2cnn(C3CCN(CC(F)(F)F)CC3)c2)c1` [Example 316], for which the “DHX9 Biochemical Max Inhibition” value was found to be 66.6% and the pIC50 was 6.69.
As to `Cc1ccc2sc(C(=O)Nc3cc(Cl)cc(NS(C)(=O)=O)c3)cc2c1` [Example 331], the “DHX9 Biochemical Max Inhibition” value was 57.8% and the pIC50 is 6.71.
For `COc1cc(N2CC(F)(F)C2)cnc1-n1cc(C(=O)Nc2cc(Cl)cc(NS(C)(=O)=O)c2)cc1C` [Example 421], the “DHX9 Biochemical Max Inhibition” value amounted to 81.6 and the pIC50 is 7.97.
Take `Cc1sc(C(=O)Nc2cc(Cl)cc(NS(C)(=O)=O)c2)cc1-c1ncc(F)cc1N1CCS(=O)(=O)CC1` [Example 503]: the “DHX9 Biochemical Max Inhibition” value was 63.7 and the pIC50 is 7.40.
As to `CN1CC2(CC(n3cc(C(=O)Nc4cc(Cl)cc(NS(C)(=O)=O)c4)cn3)C2)C1` [Example 311], the “DHX9 Biochemical Max Inhibition” value is given as 77.7% and the pIC50 is 7.41.
Take `Cc1cc(C(=O)Nc2cc(Cl)cc(NS(C)(=O)=O)c2)cn1-c1ccc(N2CCCC2=O)cn1` [Example 410]: the “DHX9 Biochemical Max Inhibition” value came to 69.3 and the pIC50 is 7.69.
Take `CS(=O)(=O)Nc1cc(Cl)cc(NC(=O)c2cnn(-c3ncccc3OCc3ccn[nH]3)c2)c1` [Example 253]: the “DHX9 Biochemical Max Inhibition” value worked out at 70% and the pIC50 was 6.96.
For the compound `CCn1cc(C(=O)Nc2cc(Cl)cc(NS(C)(=O)=O)c2)cc1-c1ccccc1` [Example 79, N-(3-chloro-5-(methylsulfonamido)phenyl)-1-ethyl-5-phenyl-1H-pyrrole-3-carboxamide], the “DHX9 Biochemical Max Inhibition” value turned out to be 67.8% and the pIC50 was 6.84.
Consider `CS(=O)(=O)Nc1cc(Cl)cc(NC(=O)c2cnn(-c3ccccn3)c2)c1` [Example 37], for which the “DHX9 Biochemical Max Inhibition” value is 62.6% and the pIC50 was 7.32.
On the same counts, the results for `CS(=O)(=O)Nc1cc(Cl)cc(NC(=O)c2cc(Br)cs2)c1` [Example 241] are 63.8% and 6.94.
The like results for `Cc1sc(C(=O)Nc2cc(Cl)cc(NS(C)(=O)=O)c2)cc1-c1ncc(N2CC3(C2)CC(F)(F)C3)cc1F` [Example 511] were, in that order, 89.8 and 7.29.
For the compound `CCS(=O)(=O)Nc1cc(Cl)cc(NC(=O)c2cc(-c3ncc(OC)cn3)c(C)s2)c1` [Example 353], the “DHX9 Biochemical Max Inhibition” value came to 69.2% and the pIC50 is 7.62.
As to `COc1cc(F)cnc1-n1cc(C(=O)Nc2cc(Cl)cc(NS(C)(=O)=O)c2)cc1C` [Example 393], the “DHX9 Biochemical Max Inhibition” value is 77 and the pIC50 was 8.64.
On to `Cn1cc(C(=O)Nc2cc(Cl)cc(NS(C)(=O)=O)c2)cc1-c1ncc(OC2CN(CC(F)F)C2)cc1F` [Example 614], for which the “DHX9 Biochemical Max Inhibition” value came to 70.4 and the pIC50 is 7.84.
With `CCS(=O)(=O)Nc1cc(F)cc(NC(=O)c2cc(-c3ccccn3)cs2)c1` [Example 113], the “DHX9 Biochemical Max Inhibition” value was 65.9% and the pIC50 is 7.40.
`Cc1cccn2cc(C(=O)Nc3cc(Cl)cc(NS(C)(=O)=O)c3)cc12` [Example 329]: the “DHX9 Biochemical Max Inhibition” value amounted to 66.5% and the pIC50 was 6.86.
